Test [1] concerns PBMCs (non-proliferating, healthy donors). Description: Cell viability, trypan blue exclusion. The following applies: Homo sapiens, PBMC, 48 h of treatment, read-out: IC50 ± SD, cell viability, PBMCs. In kind it is cell-based. On the procedure: Peripheral blood mononuclear cells (PBMCs) from healthy donors were isolated as previously described. Freshly isolated PBMCs were either cultured and treated at 1.10^6 cells/mL (non-proliferating PBMCs) or stimulated with phytohaemoagglutinin (PHA) and interleukin (IL)-2 (called PHA_PBMCs) to induce blastogenesis in T lymphocytes before treatments as previously described. Briefly, freshly isolated PBMCs were seeded at a concentration of 2.10^6 cells/mL in RMPI 1640 supplemented with 1% antibiotic-antimycotic (Lonza, Verviers, Belgium) and 10% human AB serum (Corning, Fisher scientific, Merelbeke, Belgium). After overnight incubation, floating lymphoid cells were collected and seeded at 1.10^6 cells/mL in RMPI 1640 supplemented with 1% antibiotic-antimycotic, 5% FBS, 10% human AB serum, 1 μg/mL PHA (Gentaur, Kampenhout, Belgium), 50 U/mL IL-2 (Roche, Prophac, Luxembourg City, Luxembourg), 1% non-essential amino acids (Invitrogen, Luxembourg), 1% HEPES (Invitrogen, Luxembourg), 1% sodium pyruvate (Invitrogen, Luxembourg), and 0.1% β-mercaptoethanol (Invitrogen, Luxembourg). After 72 h, the cells were seeded at 1.10^6 cells/mL in the same mitogenic growth medium described just above and treated with test compounds.
(§1) Proliferation and viability of U-937, KG-1, RAJI, PC-3, MDA-MB-231, RPMI1788, PBMCs, and PHA_PBMCs were assessed by trypan blue exclusion assays at the indicated time points. Nuclear morphology changes associated with apoptosis and necrosis were evaluated by fluorescence microscopy after Hoechst and propidium iodide (PI) staining as previously described.
(§2) IC50 values of compounds against cellular viability were determined by using nonlinear regression fitting curves with GraphPad Prism 8 or CalcuSyn software The t test used for statistical analyses was performed with GraphPad Prism 8. All the tests were one-tailed, and a p value < 0.05 was considered statistically significant.

Another test relates to RAJI. Description: Cell viability, trypan blue exclusion. The class given is cell-based, human. The following applies: Homo sapiens, Raji; 48 h of treatment; read-out: IC50 ± SD, cell viability, RAJI. On the procedure: (§3) U-937 (acute myeloid leukemia), RAJI (Burkitt’s lymphoma), PC-3 (prostate cancer), and MDA-MB-231 (breast cancer) cell lines were obtained from the Deutsche Sammlung für Mikroorganismen and Zellkulturen (DSZM, Braunschweig, Germany) and were cultured in RPMI 1640 (Lonza, Verviers, Belgium) complemented with 10% FBS (Lonza, Verviers, Belgium) and 1% antibiotic-antimycotic (Lonza). RPMI1788 (normal B lymphocytes) and KG-1 (acute myeloid leukemia) cell lines were obtained from the American Type Culture Collection (ATCC) and were maintained in RPMI 1640 complemented with 20% FBS and IMDM complemented with 10% FBS, respectively. Cell lines were treated with compounds at the indicated concentrations in the exponential growth phase.
as §1, §2

The next test deals with PC-3. Description: Cell viability, trypan blue exclusion. In kind it is cell-based, human. The following applies: Homo sapiens, PC-3; 48 h of treatment; read-out: IC50 ± SD, cell viability, PC-3. On the procedure: as §3, §1, §2
The subject of the next test is KG-1. In words: Cell viability, trypan blue exclusion. The settings on record: Homo sapiens, KG-1; 48 h of treatment; read-out: IC50 ± SD, cell viability, KG-1. The class given is cell-based, human. On the procedure:
as §3, §1, §2

The next test concerns MDA-MB-231. Description: Cell viability, trypan blue exclusion. The class given is cell-based, human. The following applies: Homo sapiens, MDA-MB-231; 48 h of treatment; read-out: IC50 ± SD, cell viability, MDA-MB-231. On the procedure:
as §3, §1, §2

Test [2] concerns DNMT3A protein level in HCT116 cells. In words: Western blot of DNMT3A protein in HCT116. In kind it is cell-based, human. The settings on record: 24 h; MC3353 effect detectable at 0.1 μM. The source says: Cells were lysed in Laemmli buffer; subsequently, the proteins were resolved by sodium dodecyl sulfate-polyacrylamide gel electrophoresis and transferred to a 0.45-μm nitrocellulose membrane (Bio-Rad Laboratories, Hercules, CA). The following primary antibodies were used for immunoblotting: α-E-cadherin (BD Transduction Laboratories, Franklin Lakes, NJ), α-MMP2 (Abcam), α-DNMT3a (Santa Cruz Biotechnologies, Dallas, TX), and α-GAPDH (Millipore Corp., Bedford, MA), used as a loading control. The immune complexes were detected with horseradish peroxidase-conjugated species-specific secondary antiserum (Bio-Rad Laboratories, Milan, Italy) then by enhanced chemiluminescence reaction (Bio-Rad Laboratories, Milan, Italy). Densitometric analysis of protein expression was performed by using the Fiji ImageJ image processing package.
GAPDH was used as a loading control. Blots are representative of two independent experiments
(In general: Immunoblotting shows a protein as a band on a membrane.)

For test [3], the system named is RPMI1788 (normal B lymphocytes). In words: Cell viability, trypan blue exclusion. In kind it is cell-based. The following applies: Homo sapiens, RPMI-1788; 48 h of treatment; normal cells; read-out: IC50 ± SD, cell viability, RPMI1788. On the procedure: as §3, §1
IC50 values of compounds against cellular viability were determined by using nonlinear regression fitting curves with GraphPad Prism 8 or CalcuSyn software The t test used for statistical analyses was performed with GraphPad Prism 8. […]

Usually IC50 stands for the concentration at which inhibition is half-maximal. `Cc1cc(Nc2ccc(NC(=O)c3ccc(Nc4ccnc5ccccc45)cc3)cc2)nc(N)n1` [SGI-1027, reference compound]: the IC50 in test [1] was 18.1 ± 6.8 µM; in the test with RAJI, 7.8 ± 0.7 µM; in the test with PC-3 it was 5 ± 0.6 µM; in the test with KG-1, 3.6 ± 0.6 µM; with MDA-MB-231, 8.5 ± 7.2 µM; in test [3] it was 6.7 ± 1.3 µM. Further, in test [2], the “DNMT3A protein expression level (western blot), HCT116” value was “moderate effect on DNMT3A expression level”.
